The record followed here is patent publication US9096560B2, “5-heterocyclylalkyl-3-hydroxy-2-phenylcyclopent-2-enones as herbicides” (Syngenta Limited, priority 2008, dated 2015).

Holding throughout (format): in vivo
Experiment [1] concerns Lolium perenne (LOLPE). Nature of the experiment: Example B post-emergence herbicidal test, LOLPE. The following applies: Lolium perenne, 312 h, rate 250 g/ha, evaluated after 13 days, scale 0-100, read-out: Post-emergence activity LOLPE (100=total damage to plant; 0=no damage to plant). How it is done: (§1) Seeds of a variety of test species were sown in standard soil in pots. After cultivation for one day (pre-emergence) or after 8 days cultivation (post-emergence) under controlled conditions in a glasshouse (at 24/16° C., day/night; 14 hours light; 65% humidity), the plants were sprayed with an aqueous spray solution derived from the formulation of the technical active ingredient in acetone/water (50:50) solution containing 0.5% Tween 20 (polyoxyethelyene sorbitan monolaurate, CAS RN 9005-64-5). The test plants were then grown in a glasshouse under controlled conditions in a glasshouse (at 24/16° C., day/night; 14 hours light; 65% humidity) and watered twice daily. After 13 days for pre and post-emergence, the test was evaluated (100=total damage to plant; 0=no damage to plant). Lolium perenne (LOLPE), Alopecurus myosuroides (ALOMY), Echinochloa crus-galli (ECHCG), Avena fatua (AVEFA) Post-Emergence Activity

Experiment [2] relates to Alopecurus myosuroides (ALOMY). Nature of the experiment: Example B post-emergence herbicidal test, ALOMY. The conditions noted are these: Alopecurus myosuroides, 312 h, rate 250 g/ha, evaluated after 13 days, scale 0-100, read-out: Post-emergence activity ALOMY (100=total damage to plant; 0=no damage to plant). On the procedure: as §1
The test system of experiment [3] is Echinochloa crus-galli (ECHCG). The experiment in a line: Example B post-emergence herbicidal test, ECHCG. The following applies: Echinochloa crus-galli, 312 h, rate 250 g/ha, evaluated after 13 days, scale 0-100, read-out: Post-emergence activity ECHCG (100=total damage to plant; 0=no damage to plant). How it is done: as §1
For experiment [4], the system named is Avena fatua (AVEFA). Nature of the experiment: Example B post-emergence herbicidal test, AVEFA. The conditions noted are these: Avena fatua, 312 h, rate 250 g/ha, evaluated after 13 days, scale 0-100, read-out: Post-emergence activity AVEFA (100=total damage to plant; 0=no damage to plant). How it is done:
as §1

Experiment [5] deals with Lolium perenne (LOLPE). The experiment in a line: Example B pre-emergence herbicidal test, LOLPE. The conditions noted are these: Lolium perenne, 312 h, rate 250 g/ha, evaluated after 13 days, 100=total damage to plant, 0=no damage to plant. On the procedure: as §1, with “Pre-Emergence” for “Post-Emergence”
Experiment [6] relates to Alopecurus myosuroides (ALOMY). The experiment in a line: Example B pre-emergence herbicidal test, ALOMY. The following applies: Alopecurus myosuroides, 312 h, rate 250 g/ha, evaluated after 13 days, 100=total damage to plant, 0=no damage to plant. On the procedure:
as §1, with “Pre-Emergence” for “Post-Emergence”

Experiment [7] deals with Echinochloa crus-galli (ECHCG). The experiment in a line: Example B pre-emergence herbicidal test, ECHCG. The conditions noted are these: Echinochloa crus-galli, 312 h, rate 250 g/ha, evaluated after 13 days, 100=total damage to plant, 0=no damage to plant. How it is done:
as §1, with “Pre-Emergence” for “Post-Emergence”

The subject of experiment [8] is Avena fatua (AVEFA). Nature of the experiment: Example B pre-emergence herbicidal test, AVEFA. The conditions noted are these: Avena fatua, 312 h, rate 250 g/ha, evaluated after 13 days, 100=total damage to plant, 0=no damage to plant. On the procedure: as §1, with “Pre-Emergence” for “Post-Emergence”

The structures appear in SMILES notation.

`Cc1cc(C)c(C2C(=O)CC(CC3C[C@@H]4O[C@H]3[C@@H]3C(=O)NC(=O)[C@@H]34)C2=O)c(C)c1` (relative stereo) [Compound T127]: the pest or weed control at 250 g/ha is 20% with Lolium perenne (LOLPE) [1], 20% in experiment [2], 20% in experiment [3] and 10% with Avena fatua (AVEFA) [4].

On to `COC1=C(c2c(C)cc(C)cc2C)C(=O)C(CC2CCOCC2)C1` (centres unmarked) [Compound P4], for which the pest or weed control at 250 g/ha amounted to 30% in the experiment on Lolium perenne (LOLPE) [1], 60% in experiment [2], 20% in experiment [3] and 40% in the experiment on Avena fatua (AVEFA) [4].

As for `Cc1cc(C)c(C2=C(OC(=O)C(C)(C)C)C/C(=C\C3CCSCC3)C2=O)c(C)c1` [Compound P9], the pest or weed control at 250 g/ha is 40% in the experiment on Lolium perenne (LOLPE) [5]; 30% in experiment [6]; 20% in experiment [7]; 0% with Avena fatua (AVEFA) [8]; 40% in the experiment on Lolium perenne (LOLPE) [1]; 30% in experiment [2]. For the same compound, the pest or weed control at 250 g/ha is 50% in experiment [3] and 10% in the experiment on Avena fatua (AVEFA) [4].

Turning to `Cc1cc(C)c(C2=C(OC(=O)C3CC3)CC(CC3CCOC3)C2=O)c(C)c1` (centres unmarked) [Compound P14], the pest or weed control at 250 g/ha in the experiment on Lolium perenne (LOLPE) [5] amounted to 100%; in experiment [6] it was 100%; in experiment [7], 100%; with Avena fatua (AVEFA) [8], 80%; with Lolium perenne (LOLPE) [1], 100%; in experiment [2], 90%. Further, the pest or weed control at 250 g/ha (in experiment [3]; in the experiment with Avena fatua (AVEFA) [4]) was 90% each time.

As to `Cc1cc(C)c(C2=C(OC(=O)C3CCCCC3)CC(CC3CCOC3)C2=O)c(C)c1` (centres unmarked) [Compound P15], the pest or weed control at 250 g/ha in the experiment on Lolium perenne (LOLPE) [5] is 100%; in experiment [6] it was 100%; in experiment [7], 100%; in the experiment on Avena fatua (AVEFA) [8] it was 90%; in the experiment on Lolium perenne (LOLPE) [1], 100%; in experiment [2], 100%. The pest or weed control at 250 g/ha came to 100% in experiment [3] and 90% in the experiment on Avena fatua (AVEFA) [4].

In the case of `COc1ccc(C(=O)OC2=C(c3c(C)cc(C)cc3C)C(=O)C(CC3CCOC3)C2)cc1` (centres unmarked) [Compound P18], the pest or weed control at 250 g/ha in the experiment with Lolium perenne (LOLPE) [5] was 100%; in experiment [6], 100%; in experiment [7], 90%; in the experiment with Avena fatua (AVEFA) [8], 80%; with Lolium perenne (LOLPE) [1], 100%; in experiment [2], 90%. Moreover, the pest or weed control at 250 g/ha (in experiment [3]; with Avena fatua (AVEFA) [4]) was 90% each time.

`Cc1cc(C)c(C2=C(OC(=O)OCC(C)C)CC(CC3CCOC3)C2=O)c(C)c1` (centres unmarked) [Compound P23]: the pest or weed control at 250 g/ha in the experiment on Lolium perenne (LOLPE) [5] is 100%; in experiment [6], 100%; in experiment [7], 100%; with Avena fatua (AVEFA) [8] it was 80%; in the experiment on Lolium perenne (LOLPE) [1] it was 100%; in experiment [2], 90%. Besides, the pest or weed control at 250 g/ha (in experiment [3]; with Avena fatua (AVEFA) [4]) was 90% in each case.

For the compound `Cc1cc(C)c(C2=C(OC(=O)OCC(C)(C)C)CC(CC3CCOC3)C2=O)c(C)c1` (centres unmarked) [Compound P24], the pest or weed control at 250 g/ha in the experiment on Lolium perenne (LOLPE) [5] amounted to 100%; in experiment [6] it was 100%; in experiment [7], 90%; with Avena fatua (AVEFA) [8] it was 90%; in the experiment on Lolium perenne (LOLPE) [1], 100%; in experiment [2], 90%. Also, the pest or weed control at 250 g/ha (in experiment [3]; with Avena fatua (AVEFA) [4]) was 90% in each case.

For the compound `C=CCOC(=O)OC1=C(c2c(C)cc(C)cc2C)C(=O)C(CC2CCOC2)C1` (centres unmarked) [Compound P25], the pest or weed control at 250 g/ha with Lolium perenne (LOLPE) [5] was 90%; in experiment [6] it was 100%; in experiment [7], 90%; with Avena fatua (AVEFA) [8], 80%; in the experiment with Lolium perenne (LOLPE) [1], 100%; in experiment [2] it was 90%. In addition, the results for the pest or weed control at 250 g/ha (in experiment [3]; in the experiment with Avena fatua (AVEFA) [4]) were 100% and 90%, respectively.

For `Cc1cc(C)c(C2=C(OC(=O)c3ccco3)CC(CC3CCN(C(=O)c4ccco4)C3)C2=O)c(C)c1` (centres unmarked) [Compound P62], the pest or weed control at 250 g/ha with Lolium perenne (LOLPE) [1] worked out at 80%; in experiment [2], 70%; in experiment [3] it was 70%; in the experiment with Avena fatua (AVEFA) [4], 70%.

Regarding `COC1=C(c2c(C)cc(C)cc2C)C(=O)C/C1=C\C1CCOCC1` [Compound P69], the pest or weed control at 250 g/ha in the experiment on Lolium perenne (LOLPE) [1] turned out to be 40%; in experiment [2] it was 0%; in experiment [3], 80%; with Avena fatua (AVEFA) [4], 20%.

Take `Cc1cc(C)c(C2C(=O)CC(C(O)C3CCSCC3)C2=O)c(C)c1` (centres unmarked) [Compound T6]: the pest or weed control at 250 g/ha was 10% in the experiment on Lolium perenne (LOLPE) [1], 20% in experiment [2], 10% in experiment [3] and 0% with Avena fatua (AVEFA) [4].

Take `Cc1cc(C)c(C2C(=O)CC(CC3CCNCC3)C2=O)c(C)c1` (centres unmarked) [Compound T53]: the pest or weed control at 250 g/ha in the experiment with Lolium perenne (LOLPE) [5] was 40%; in experiment [6] it was 30%; in experiment [7] it was 0%; in the experiment with Avena fatua (AVEFA) [8], 0%.

`Cc1ccc(S(=O)(=O)N2CCC(CC3CC(=O)C(c4c(C)cc(C)cc4C)C3=O)CC2)cc1` (centres unmarked) [Compound T109]: the pest or weed control at 250 g/ha (with Lolium perenne (LOLPE) [5]; in experiment [6]; in experiment [7]; in the experiment with Avena fatua (AVEFA) [8]) was 0% throughout.

On to `Cc1cc(C)c(C2C(=O)CC(CC3CCN(C(=O)/C=C/c4ccccc4)CC3)C2=O)c(C)c1` (centres unmarked) [Compound T116], for which the pest or weed control at 250 g/ha was found to be 90% in the experiment on Lolium perenne (LOLPE) [1], 60% in experiment [2], 50% in experiment [3] and 90% in the experiment on Avena fatua (AVEFA) [4].

Consider `Cc1cc(-c2ccc(C(F)(F)F)cc2)cc(C)c1C1C(=O)C/C(=C\C2CCOCC2)C1=O` (centres unmarked) [Compound T133], for which the pest or weed control at 250 g/ha came to 0% with Lolium perenne (LOLPE) [1], 20% in experiment [2], 90% in experiment [3] and 30% in the experiment with Avena fatua (AVEFA) [4].

Take `Cc1cc(-c2ccc(C(F)(F)F)cc2)cc(C)c1C1C(=O)CC(CC2CCOCC2)C1=O` (centres unmarked) [Compound T136]: the pest or weed control at 250 g/ha in the experiment on Lolium perenne (LOLPE) [1] worked out at 30%; in experiment [2] it was 50%; in experiment [3], 60%; in the experiment on Avena fatua (AVEFA) [4], 70%.

Turning to `CCC1(CC2CCOC2)CC(=O)C(c2c(C)cc(C)cc2C)C1=O` (centres unmarked) [Compound T152], the pest or weed control at 250 g/ha with Lolium perenne (LOLPE) [1] turned out to be 30%; in experiment [2], 20%; in experiment [3], 10%; in the experiment on Avena fatua (AVEFA) [4] it was 10%.

As for `COCC1(CC2CCOC2)CC(=O)C(c2c(C)cc(C)cc2C)C1=O` (centres unmarked) [Compound T153], the pest or weed control at 250 g/ha turned out to be 20% in the experiment with Lolium perenne (LOLPE) [1], 10% in experiment [2], 10% in experiment [3] and 20% in the experiment on Avena fatua (AVEFA) [4].
